One test deals with T1, BRM (Homo sapiens, UniProt P51531).
T1 construct: made in house; host or cells: High Five insect cells
The test is described as follows: ATPase catalytic activity assay (ADP-Glo), BRM. It is filed as biochemical. To be noted: Table 10; for Ratio (BRG1 IC50 (μM) divided by BRM IC50 (μM)): ATPase assay, selectivity BRG1/BRM; for IC50: ATPase catalytic activity assay (ADP-Glo). The essentials:
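Reaction holds 30 nM BRM, 20 nM salmon sperm DNA and 400 μM ATP in 20 mM Tris pH 8, 20 mM MgCl2, 50 mM NaCl, 0.1% Tween-20, 1 mM DTT. Incubated 1 h at room temperature. ADP formed is detected by ADP-Glo luminescence.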

A further test deals with T2, BRG-1 (Homo sapiens, UniProt P51532).
T2 construct: made in house; host or cells: High Five insect cells
Nature of the test: ATPase catalytic activity assay (ADP-Glo), BRG-1. The settings on record: Table 10, read-out: BRG1 IC50. It is filed as biochemical. An outline of the steps:
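Biochemical ADP-Glo assay, BRG-1. Post-reaction: ATP depletion reagent, 40 min RT; ADP→ATP conversion/detection reagent, 60 min RT; luminescence read on plate luminometer.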

T1 sequence (P51531 whole entry): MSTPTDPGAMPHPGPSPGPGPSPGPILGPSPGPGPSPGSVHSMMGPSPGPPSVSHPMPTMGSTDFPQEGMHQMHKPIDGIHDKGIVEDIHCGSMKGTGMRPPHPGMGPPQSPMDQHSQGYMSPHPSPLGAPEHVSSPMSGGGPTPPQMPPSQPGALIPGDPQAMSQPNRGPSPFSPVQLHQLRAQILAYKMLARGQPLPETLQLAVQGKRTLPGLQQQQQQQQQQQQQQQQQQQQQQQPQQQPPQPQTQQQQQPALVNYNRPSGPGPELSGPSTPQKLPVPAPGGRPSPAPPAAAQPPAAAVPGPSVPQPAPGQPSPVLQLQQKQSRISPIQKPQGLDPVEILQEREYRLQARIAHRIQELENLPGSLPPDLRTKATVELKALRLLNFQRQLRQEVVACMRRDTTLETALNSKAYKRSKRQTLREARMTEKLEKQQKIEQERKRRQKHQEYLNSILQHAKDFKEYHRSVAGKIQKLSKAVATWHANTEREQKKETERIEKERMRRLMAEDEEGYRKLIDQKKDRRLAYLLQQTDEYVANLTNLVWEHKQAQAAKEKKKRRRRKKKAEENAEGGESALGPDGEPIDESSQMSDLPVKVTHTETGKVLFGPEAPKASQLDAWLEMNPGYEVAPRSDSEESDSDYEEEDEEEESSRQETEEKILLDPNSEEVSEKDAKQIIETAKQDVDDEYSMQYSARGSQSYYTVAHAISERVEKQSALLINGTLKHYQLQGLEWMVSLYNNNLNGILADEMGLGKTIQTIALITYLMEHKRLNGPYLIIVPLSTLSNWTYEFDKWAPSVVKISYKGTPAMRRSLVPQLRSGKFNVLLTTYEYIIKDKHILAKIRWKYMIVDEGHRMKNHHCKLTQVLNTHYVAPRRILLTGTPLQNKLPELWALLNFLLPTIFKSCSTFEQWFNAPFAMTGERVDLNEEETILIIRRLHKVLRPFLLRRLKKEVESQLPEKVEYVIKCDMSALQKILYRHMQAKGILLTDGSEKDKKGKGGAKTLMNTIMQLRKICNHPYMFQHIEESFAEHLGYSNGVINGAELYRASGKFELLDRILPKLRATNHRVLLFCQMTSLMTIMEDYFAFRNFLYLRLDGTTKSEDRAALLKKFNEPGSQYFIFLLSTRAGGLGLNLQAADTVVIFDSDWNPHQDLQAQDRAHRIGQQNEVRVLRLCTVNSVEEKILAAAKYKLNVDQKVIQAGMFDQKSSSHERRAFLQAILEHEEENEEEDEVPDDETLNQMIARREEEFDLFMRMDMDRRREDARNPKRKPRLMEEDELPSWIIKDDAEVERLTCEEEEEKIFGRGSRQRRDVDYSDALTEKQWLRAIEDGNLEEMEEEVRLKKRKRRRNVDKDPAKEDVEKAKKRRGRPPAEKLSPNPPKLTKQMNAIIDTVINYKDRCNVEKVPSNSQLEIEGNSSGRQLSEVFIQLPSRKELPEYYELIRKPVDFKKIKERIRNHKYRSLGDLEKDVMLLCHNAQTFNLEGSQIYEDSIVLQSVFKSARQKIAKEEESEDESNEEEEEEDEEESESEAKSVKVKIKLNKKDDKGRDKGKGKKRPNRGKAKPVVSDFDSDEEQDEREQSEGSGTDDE
T2 sequence (P51532 whole entry): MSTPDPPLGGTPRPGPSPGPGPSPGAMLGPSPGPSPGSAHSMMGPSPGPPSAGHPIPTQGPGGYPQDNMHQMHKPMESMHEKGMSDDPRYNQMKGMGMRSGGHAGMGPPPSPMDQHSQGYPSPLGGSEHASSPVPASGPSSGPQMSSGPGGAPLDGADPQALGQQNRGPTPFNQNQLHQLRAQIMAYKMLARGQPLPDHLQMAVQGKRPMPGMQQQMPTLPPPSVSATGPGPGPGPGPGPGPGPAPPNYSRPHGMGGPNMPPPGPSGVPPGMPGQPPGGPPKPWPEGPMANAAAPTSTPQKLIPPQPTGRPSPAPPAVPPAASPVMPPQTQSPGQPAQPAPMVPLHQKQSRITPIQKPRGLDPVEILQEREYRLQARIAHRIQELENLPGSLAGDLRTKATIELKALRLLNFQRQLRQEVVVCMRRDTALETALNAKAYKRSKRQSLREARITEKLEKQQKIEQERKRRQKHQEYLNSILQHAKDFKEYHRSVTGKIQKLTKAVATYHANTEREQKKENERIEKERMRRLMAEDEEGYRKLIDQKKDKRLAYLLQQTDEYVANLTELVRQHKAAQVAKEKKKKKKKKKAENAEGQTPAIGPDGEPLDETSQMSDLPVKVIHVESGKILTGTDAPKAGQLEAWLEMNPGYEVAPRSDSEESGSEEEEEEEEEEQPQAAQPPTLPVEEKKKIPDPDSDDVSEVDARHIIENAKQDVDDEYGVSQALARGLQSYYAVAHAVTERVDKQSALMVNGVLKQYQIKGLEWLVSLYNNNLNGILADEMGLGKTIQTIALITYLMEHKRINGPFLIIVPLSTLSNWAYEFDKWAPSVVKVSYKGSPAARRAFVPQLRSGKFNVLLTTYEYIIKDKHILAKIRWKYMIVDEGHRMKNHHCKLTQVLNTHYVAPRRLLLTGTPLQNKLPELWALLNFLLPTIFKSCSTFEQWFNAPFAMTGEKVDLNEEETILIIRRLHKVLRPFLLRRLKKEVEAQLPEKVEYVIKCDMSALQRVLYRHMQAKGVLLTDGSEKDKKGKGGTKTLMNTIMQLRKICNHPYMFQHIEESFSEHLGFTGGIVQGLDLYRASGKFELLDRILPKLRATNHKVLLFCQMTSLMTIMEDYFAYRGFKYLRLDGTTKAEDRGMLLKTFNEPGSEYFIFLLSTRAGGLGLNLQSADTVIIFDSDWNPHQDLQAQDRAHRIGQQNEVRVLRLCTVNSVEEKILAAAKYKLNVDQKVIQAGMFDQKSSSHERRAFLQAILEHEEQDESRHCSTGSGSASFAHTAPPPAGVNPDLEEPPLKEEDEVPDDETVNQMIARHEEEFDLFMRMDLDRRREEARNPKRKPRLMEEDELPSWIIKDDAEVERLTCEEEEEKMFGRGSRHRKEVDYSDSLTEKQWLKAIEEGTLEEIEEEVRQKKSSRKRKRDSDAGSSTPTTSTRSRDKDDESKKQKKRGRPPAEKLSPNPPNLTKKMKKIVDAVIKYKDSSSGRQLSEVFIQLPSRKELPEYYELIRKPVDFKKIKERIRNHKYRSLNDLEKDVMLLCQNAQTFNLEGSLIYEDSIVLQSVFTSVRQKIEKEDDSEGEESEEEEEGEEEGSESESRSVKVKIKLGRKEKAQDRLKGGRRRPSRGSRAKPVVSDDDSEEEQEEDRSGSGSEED

For the molecule `O=C(NCc1cc2nc(N3CCOc4c(OCC5CC5)ccnc43)ccc2cn1)c1cc(F)c2c(c1)S(=O)(=O)[C@@H](F)CCO2` [Compound 113], the “Ratio (BRG1 IC50 (μM) divided by BRM IC50 (μM))” value at BRM came out at 21.12. Besides, the figures for the IC50 against BRM and at BRG-1 were 4 nM and 83.9 nM, respectively.
As to `O=C(NCc1cc2nc(-c3cccc(C4CC4)n3)ccc2cn1)c1cc(F)c2c(c1)S(=O)(=O)[C@@H](F)COC2` [Compound 114], at BRM, the “Ratio (BRG1 IC50 (μM) divided by BRM IC50 (μM))” value is given as 29.13 and the IC50 came to 4 nM. On BRG-1, the IC50 is 118 nM.
For `C[C@@H]1C[C@H]1c1cnc2c(c1)OCCN2c1ccc2cnc(CNC(=O)c3cc(F)c4c(c3)S(=O)(=O)[C@@H](F)CCO4)cc2n1` [Compound 115], at BRM, the “Ratio (BRG1 IC50 (μM) divided by BRM IC50 (μM))” value is recorded as 22.17 and 4 nM corresponded to half-maximal inhibition (IC50). In addition, the IC50 at BRG-1 was 105 nM.
In the same order, the values of `O=C(NCc1cc2nc(N3CCOc4cc([C@H]5CC5(F)F)cnc43)ccc2cn1)c1cc(F)c2c(c1)S(=O)(=O)[C@@H](F)COC2` [Compound 116] are 12.04, 4 nM and 48.3 nM.
Taken in the same sequence, the figures for `O=C(NCc1cc2nc(-c3cccc(N4CCC4)n3)ccc2cn1)c1cc(F)c2c(c1)S(=O)(=O)[C@@H](F)CCO2` [Compound 117] were 21.61, 4 nM and 87.1 nM.
Consider `O=C(NCc1cc2cc(-c3cccc(C4CC4)n3)ccc2cn1)c1cc(F)c2c(c1)S(=O)(=O)[C@@H](F)COC2` [Compound 118], for which, on BRM, the “Ratio (BRG1 IC50 (μM) divided by BRM IC50 (μM))” value was 19.47 and the IC50 was found to be 4 nM. Besides, the IC50 at BRG-1 amounted to 63 nM.
Taken in the same sequence, the figures for `O=C(NCc1cc2nc(N3CCOc4ccc(N5CCC(F)(F)C5)nc43)ccc2cn1)c1cc(F)c2c(c1)S(=O)(=O)[C@@H](F)CCO2` [Compound 119] were 10.33, 4.1 nM and 42.2 nM.
In the same order, the values of `Cc1ccc(-c2ccc3cnc(CNC(=O)c4cc(F)c5c(c4)S(=O)(=O)[C@@H](F)CCO5)cc3n2)c(OC(F)F)n1` [Compound 120] are 24.03, 4.1 nM and 98.3 nM.
In the same order, the values of `O=C(NCc1cc2nc(N3CCOc4cc(N5C[C@@H](F)[C@H](F)C5)cnc43)ccc2cn1)c1cc(Cl)c2c(c1)S(=O)(=O)[C@@H](F)COC2` [Compound 121] are 13.86, 4.1 nM and 56.7 nM.
Consider `COc1nc(C(F)F)ccc1-c1ccc2cnc([C@H](C)NC(=O)c3ccc4c(c3)S(=O)(=O)[C@@H](F)CCOC4)cc2n1` [Compound 122], for which, at BRM, the “Ratio (BRG1 IC50 (μM) divided by BRM IC50 (μM))” value is recorded as 10.93 and half-maximal inhibition (IC50) was put at 4.2 nM. Besides, the half-inhibitory concentration (IC50) on BRG-1 is 45.9 nM.
`O=C(NCc1cc2nc(N3CCOc4ccc([C@@H]5C[C@H]5C(F)F)nc43)ccc2cn1)c1cc(F)c2c(c1)S(=O)(=O)[C@@H](F)CCO2` [Compound 123]: the “Ratio (BRG1 IC50 (μM) divided by BRM IC50 (μM))” value at BRM came out at 12.84. Moreover, the values for the IC50 on BRM and on BRG-1 were 4.2 nM and 50.6 nM, respectively.
In the case of `O=C(NCc1cc2nc(N3CCOc4cc(N5C[C@@H](F)[C@@H](F)C5)cnc43)ccc2cn1)c1cc(F)c2c(c1)S(=O)(=O)[C@@H](F)CCO2` [Compound 124], at BRM, the “Ratio (BRG1 IC50 (μM) divided by BRM IC50 (μM))” value was found to be 15.93 and the 50% inhibitory concentration (IC50) came out at 4.3 nM. In addition, the half-maximal inhibitory concentration (IC50) on BRG-1 came to 74.9 nM.
In the same order, the values of `O=C(NCc1cc2nc(N3CCOc4ccc([C@H]5C[C@@H]5C(F)F)nc43)ccc2cn1)c1cc(F)c2c(c1)S(=O)(=O)[C@@H](F)CCO2` [Compound 125] are 19.09, 4.3 nM and 81.5 nM.
As to `CCOc1ccnc2c1OCCN2c1ccc2cnc(CNC(=O)c3cc(F)c4c(c3)S(=O)(=O)[C@@H](F)CCO4)cc2n1` [Compound 129], the “Ratio (BRG1 IC50 (μM) divided by BRM IC50 (μM))” value at BRM was found to be 18.60. For the same molecule, the IC50 against BRM is 4.5 nM; at BRG-1, 111 nM.
Turning to `O=C(NCc1cc2nc(N3CCOc4cc(C56CC(C5)C6)cnc43)ccc2cn1)c1cc(F)c2c(c1)S(=O)(=O)[C@@H](F)CCO2` [Compound 130], on BRM, the “Ratio (BRG1 IC50 (μM) divided by BRM IC50 (μM))” value was 15.94 and half-maximal inhibition (IC50) was put at 4.5 nM. At BRG-1, the IC50 came to 71.1 nM.
As to `COc1nc(C(F)F)ccc1-c1ccc2cnc(CNC(=O)c3cc(C)c4c(c3)S(=O)(=O)[C@@H](F)COC4)cc2n1` [Compound 131], the “Ratio (BRG1 IC50 (μM) divided by BRM IC50 (μM))” value on BRM was 17.91. Moreover, the IC50 on BRM is 4.5 nM; on BRG-1, 70.8 nM.
In the same order, the values of `O=C(NCc1cc2nc(N3CCOc4ccc([C@H]5C[C@@H]5F)nc43)ccc2cn1)c1cc(F)c2c(c1)S(=O)(=O)[C@@H](F)COC2` [Compound 132] are 17.90, 4.5 nM and 77.2 nM.
Taken in the same sequence, the figures for `COc1cnc2c(c1)CCCN2c1ccc2cnc(CNC(=O)c3cc(F)c4c(c3)S(=O)(=O)[C@@H](F)CCO4)cc2n1` [Compound 133] were 18.45, 4.5 nM and 94.2 nM.
`C[C@@H]1CN(c2cccc(-c3ccc4cnc(CNC(=O)c5cc(F)c6c(c5)S(=O)(=O)[C@@H](F)CO[C@@H]6C)cc4n3)n2)C[C@H](C)O1` [Compound 134]: the “Ratio (BRG1 IC50 (μM) divided by BRM IC50 (μM))” value on BRM came out at 20.63. Besides, the IC50 on BRM was 4.6 nM; at BRG-1, 98.6 nM.
Taken in the same sequence, the figures for `[2H]C([2H])([2H])Oc1nc(C(F)F)ccc1-c1ccc2cnc(CNC(=O)c3cc(F)c4c(c3)S(=O)(=O)[C@@H](F)CCO4)cc2n1` [Compound 135] were 23.88, 4.6 nM and 110 nM.
Taken in the same sequence, the figures for `COc1nc(C(F)F)ccc1-c1ccc2cnc(CNC(=O)c3cc(F)c4c(c3)S(=O)(=O)[C@@H](F)CCO4)c(F)c2n1` [Compound 136] were 13.12, 4.6 nM and 74.9 nM.
In the case of `COc1nc(C(F)F)ccc1-c1ccc2cnc(CNC(=O)c3cc(F)c4c(c3)S(=O)(=O)[C@@H](F)COC4)cc2c1` [Compound 137], at BRM, the “Ratio (BRG1 IC50 (μM) divided by BRM IC50 (μM))” value came out at 21.45 and the IC50 came to 4.7 nM. The IC50 on BRG-1 worked out at 99.7 nM.
Taken in the same sequence, the figures for `O=C(NCc1cc2nc(N3CCOc4cc(N5C[C@H](F)[C@@H](F)C5)cnc43)ccc2cn1)c1cc(F)c2c(c1)S(=O)(=O)[C@@H](F)CCO2` [Compound 138] were 18.95, 4.7 nM and 88.2 nM.
In the same order, the values of `O=C(NCc1cc2nc(N3CCOc4cc(N5CC(F)C5)cnc43)ccc2cn1)c1cc(F)c2c(c1)S(=O)(=O)[C@@H](F)CCO2` [Compound 139] are 24.09, 4.7 nM and 147 nM.
For `[2H]C1([2H])OC[C@H](F)S(=O)(=O)c2cc(C(=O)NCc3cc4nc(N5CCOc6ccc(C(F)F)nc65)ccc4cn3)cc(F)c21` [Compound 140], on BRM, the “Ratio (BRG1 IC50 (μM) divided by BRM IC50 (μM))” value stood at 17.66 and the IC50 worked out at 4.7 nM. Besides, on BRG-1, the IC50 is 83.1 nM.

The values above are taken from patent publication US12139487B2, “Compounds and uses thereof” (Foghorn Therapeutics Inc., priority 2022, dated 2024).
